Entries after “also recorded” stand apart in the source; their conditions may differ.
How the values were obtained:
[1] = test system: 22Rv1 human prostate cancer cells; assay: MTT assay, 22Rv1 cells; type: cell-based; conditions: treated for 48 h
Protocol: (§1) The human prostate cancer cell lines PC-3 [docetaxel-resistant, androgen-independent, AR-FL(-), AR-V7(-)], 22Rv1 [docetaxel-sensitive, androgen-independent, AR-FL(+), AR-V7(+)], and the human non-cancer fibroblast cell line MRC-9 were used. PC-3 and 22Rv1 were purchased from ATCC (Manassas, VA, USA). MRC-9 cells were kindly donated by Prof. Dr. med. Sonja Loges (University Medical Center Hamburg-Eppendorf, Hamburg, Germany). Cells were cultured according to the manufacturers’ protocol in 10% FBS/RPMI (PC-3 and 22Rv1) or 10% FBS/DMEM (MRC-9) medium.
(§2) In vitro drug sensitivity MTT assay was performed as previously described. In total, 6000 cells/well were seeded in 96-well plates, incubated overnight, and treated with the investigated drugs for 48 h.

[2] = test system: MRC-9 human non-cancer fibroblast cells; assay: MTT assay, MRC-9 non-cancer fibroblasts; type: cell-based; conditions: treated for 48 h
Protocol: as §1, §2

[3] = test system: PC-3 human prostate cancer cells; assay: MTT assay, PC-3 cells; type: cell-based; conditions: for IC50: PC-3 cells, MTT, treated for 48 h; for Selectivity index (MRC-9 vs. PC-3): [IC50 in MRC-9 cells] / [IC50 in PC-3 cells]
Protocol: as §1, §2

PC-3 cells [4] = assay: DNA fragmentation / apoptosis induction by flow cytometry (PI staining, sub-G1); type: cell-based, human; conditions: PC-3 cells, 0.5, 1, 5 and 10 µM, 24 h (Figure 3)
Protocol: (§3) The effect of the compounds on apoptosis induction and cell cycle progression was analyzed by flow cytometry technique using PI staining as reported before. Cells (0.2 × 10^6 cells/well) were seeded in six-well plates, incubated overnight, and treated with the investigated drugs for 48 h. The cells were further harvested, fixed with 70% EtOH/H2O, stained with propidium iodide (PI), and analyzed using a FACS Calibur machine (BD Bioscience, San Jose, CA, USA). The results were quantified using BD Bioscience Cell Quest Pro software (v.5.2.1., BD Bioscience).
To investigate the mechanism of action contributing to the cytotoxicity in PC-3 cells, we investigated the effects on DNA fragmentation, a well-established marker of cellular apoptosis. Therefore, we evaluated the effects of the isolated compounds at four different concentrations of 0.5 µM, 1 µM, 5 µM, and 10 µM by flow cytometry (Figure 3). […] Therefore, prenylated dimeric flavonoid 8 may either reveal a non-apoptotic character of cell death or a predominantly antiproliferative rather than cytotoxic effect.
Figure 3 Effect of natural compounds on DNA fragmentation of PC-3 cells. Cells were treated with the investigated compounds for 24 h. The effects were analyzed by flow cytometry. Cells detected as sub-G1 population were considered to be apoptotic. Cisplatin (Cis) was used as a positive control. * p ≤ 0.05 (Student’s t-test).

[5] = test system: CDK1–CDK9 mRNA in PC-3 cells; assay: qPCR of CDK1-CDK9 mRNA expression; type: cell-based, human; conditions: 24 h, normalized to GAPDH (Figure 5)
Protocol: The CDKs gene expression was measured using qPCR technique. PC-3 cells were seeded in Petri dishes (1 × 10^6 cells per ø 6 cm dish in 5 mL) in standard culture media, incubated overnight and treated with the investigated drugs in the fresh culture media for 24 h. Cells were harvested using the cell scraper, washed with PBS and homogenized using QIAshredder (QIAGEN, Hilden, Germany). The total RNA was isolated using PureLink® RNA Mini Kit (Invitrogen, Carlsbad, CA, USA) and the on-column DNA digestion using PureLink™ DNase (Invitrogen). Correspondent RNA (2 µg in 30 µL) and was transcribed into cDNA using Maxima First Strand cDNA Synthesis Kit for RT-qPCR (Thermo Scientific, Vilnius, Lithuania). The following qPCR was performed using 2X KAPA SYBR FAST qPCR Master Mix Optimized for Roche LightCycler 480 (KAPA biosystems, Worburn, MA, USA) according to the manufacturer’s protocol. In total, 20 ng of the template cDNA and 2 pmol of primers were used for each reaction. The PCR conditions were 30 s at 95 °C, followed by 40 cycles of 15 s at 95 °C, 5 s at melting temperature (Tm), and 26 s at 72 °C (fluorescence measurement). Melting curve analysis was performed under the following conditions directly after the PCR run: 10 s at 95 °C, 60 s at 65 °C and 1 s at 97 °C. Relative gene expression was calculated using the 2^-∆∆CT method. The expression of CDKs was normalized to GAPDH gene expression. The analysis was performed using primers, purchased from Eurofins MWG-Biotech AG (Ebersberg, Germany).
Due to the significant alterations of the cell cycle, we further investigated the effects of the isolated compounds on the cyclin-dependent kinases (CDKs). These proteins are known to control proliferation as well as some apoptotic processes. We have examined the expression of mRNAs corresponding to the nine most studied CDKs known to be involved in the cell cycle progression of cancer cells, namely, CDK1–CDK9. […] Remarkably, these effects correlated well with the cytotoxicity of the isolated compounds.
Figure 5 Expression of mRNA correspondent to CDK1-9 in PC-3 cells treated with the isolated compounds 1–8 for 24 h. The target gene expression was normalized to GAPDH gene expression. * p ≤ 0.05 (Student’s t-test).

PC-3 cells [6] = assay: Cell cycle progression by flow cytometry (PI staining); type: cell-based, human; conditions: 24 h (Figure 4)
Protocol: as §3
Next, we examined the effects of the isolated compounds on the cell cycle progression of PC-3 cells. For compounds 1–3, a significant accumulation of the cells in S-phase as well as slight accumulation in G2/M-phase was observed (Figure 4).
Figure 4 Treatment effects on the progression of the cell cycle of PC-3 cells. Cells were treated with the investigated compounds for 24 h. The effects were analyzed by flow cytometry. Cisplatin was used as a positive control. * p ≤ 0.05 (Student’s t-test).

[7] = Homo sapiens, MRC9, MRC-9 cells

SMILES	IC50 ([1]; Homo sapiens) [µM]	IC50 ([3]; Homo sapiens) [µM]	IC50 [2, 7] [µM]	Selectivity index (MRC-9 vs. PC-3) [3]	IC50 [1] [µM]	IC50 ([2]; MRC-9 cells) [µM]	IC50 [3] [µM]	Apoptosis induction (DNA fragmentation, sub-G1 population) (PC-3 cells [4])	Effect on expression of mRNA corresponding to CDK1-9 [5]	Effect on cell cycle progression (PC-3 cells [6])
CC(C)=CCC/C(C)=C/Cc1c(O)c(O)cc(C(=O)C(=O)c2ccc(O)cc2O)c1O [Compound 6]	46.9	19.3	> 50	>2.6	–	–	–	–	–	–
CC(C)=CCC[C@]1(C)C=Cc2c(c(O)cc3c2O[C@H]2c4ccc(O)cc4OC[C@@H]32)O1 [Compound 4]	29.5	16.4	27.2	1.66	–	–	–	–	–	–
N.N.[Cl][Pt][Cl] [Cisplatin, reference compound]	–	–	–	0.72	4.53	15.1	21	–	–	–
CC(C)=CCC/C(C)=C/Cc1c(O)c(O)cc2c1O[C@H]1c3ccc(O)cc3OC[C@@H]21 [Compound 2]	13.8	5.24	37.6	7.17	–	–	–	–	inhibitory effects; also recorded: fairly active	–
COc1cc2c(c(C/C=C(\C)CCC=C(C)C)c1O)O[C@H]1c3ccc(O)cc3OC[C@@H]21 [Compound 7, (6aR,11aR)-8-O-methyl-6a,11a-dihydrolespedezol A2]	30.5	14.9	24.4	1.64	–	–	–	–	did not exhibit this activity	G1-phase arrest instead of S-phase arrest
CC(C)=CCC/C(C)=C/Cc1c(O)c(O)cc2c3c(oc12)-c1ccc(O)cc1OC3 [Compound 1]	20.1	6.73	48.5	7.21	–	–	–	–	inhibitory effects	–

Continued, in another order:

IC50 ([1]; Homo sapiens) [µM]	IC50 ([3]; Homo sapiens) [µM]	SMILES	IC50 [2, 7] [µM]	Selectivity index (MRC-9 vs. PC-3) [3]	IC50 [1] [µM]	IC50 ([2]; MRC-9 cells) [µM]	IC50 [3] [µM]	Apoptosis induction (DNA fragmentation, sub-G1 population) (PC-3 cells [4])	Effect on expression of mRNA corresponding to CDK1-9 [5]	Effect on cell cycle progression (PC-3 cells [6])
35.8	15.2	CC(C)=CCC[C@@]1(C)C=Cc2c(c(O)cc3c2O[C@H]2c4ccc(O)cc4OC[C@@H]32)O1 [Compound 5]	24.6	1.62	–	–	–	–	–	–
6.38	2.1	CC(C)=CCC/C(C)=C/Cc1c(O)c(O)cc2c1O[C@H]1c3cc(CC=C(C)C)c(O)cc3OC[C@@H]21 [Compound 3]	16.8	7.99	–	–	–	most pronounced apoptosis-inducing effect	inhibitory effects; also recorded: strongest inhibitory effect	–
17.5	9.24	CC(C)=CCC/C(C)=C/Cc1c(O)c(C(=O)c2c(-c3ccc(O)cc3O)oc3c(C/C=C(\C)CCC=C(C)C)c(O)c(O)cc23)cc2c1O[C@H]1c3ccc(O)cc3OC[C@@H]21 [Compound 8, Lespebicolin A]	23.9	2.59	–	–	–	apart from structurally different lespebicolin A (8)	did not exhibit any pronounced effect on CDKs mRNA expression	could not induce an S-phase cell cycle arrest
